Where “and” joins values, the source holds several entries; their conditions need not be identical. Equal entries are not always repeated. Records with an inconclusive call do not appear. Calls of active or inactive are those of the source.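 How the source made its calls: active means fitted half-maximal concentration of signal decrease at or below twice the sample's top tested concentration; inconclusive means flat curve between -70 and -30 percent, or poor fit; inactive means flat within 30 percent, signal rise, or potency above limit.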 Bounds are passed on as bounds.

Data on 83 compounds can be found in PubChem BioAssay AID1259418 (Broad Institute, 2018).

This test deals with T. gondii ME49Luc in IFN-y HeLa, luciferase, 72 h. Kind of test: T. gondii growth inhibition with IFN-gamma, dose response, cell-based, ME49Luc, HeLa, luciferase, 72 h (AID 1259418).

As usually defined, the AC50 is the concentration at which the activity in the assay is half-maximal. As to `O=C(CCC1N=C2c3ccccc3N=C(SCc3ccc(F)cc3)N2C1=O)NCCc1ccccc1` (stereo not drawn), the AC50 was 37.8 µM.
The figure for `CCOc1ccc(-c2nc(CN(c3ccccc3C)S(=O)(=O)c3cccs3)c(C)o2)cc1` is 18.8 µM; for `Cc1nc(OCC(=O)Nc2ccc(Cl)c(Cl)c2)c2ccccc2n1` it is > 39 µM (inactive).
The figure for `Cc1ccccc1S(=O)(=O)N1CC[C@@H]2[C@H]1c1cc(-c3cccc(F)c3)ccc1N(C)[C@H]2CO` is 17.7 µM.
The value for `COc1ccc(-c2ccc3c(c2)[C@H]2[C@H](CCN2C(=O)c2cccc(F)c2)[C@H](CO)N3)cc1` was 16 µM; that for `CN(C)C(=O)c1ccc(-c2ccc3c(c2)[C@@H]2[C@@H](CCN2C(=O)C2CCCC2)[C@@H](CO)N3C)cc1` was 21.1 µM.
As for `COc1ccccc1NC(=O)N1CCCCN2[C@H](C1)[C@@H](c1ccc(-c3cccc(C#N)c3)cc1)[C@@H]2CO`, the concentration at half-maximal activity (AC50) was 21.1 µM.
The figure for `COc1cccc(S(=O)(=O)N2CCCCN3[C@H](CO)[C@H](c4ccc(C#CC5CC5)cc4)[C@H]3C2)c1` is 10.8 µM and 2.78 µM.
Turning to `CCc1c(C)sc2c1CCN(Cc1nc(-c3cc(C)ccc3C)oc1C)C2c1ccccc1` (stereo not drawn), the concentration at half-maximal activity (AC50) was 9.45 µM.
The value for `O=C(CC1N=C2c3ccccc3N=C(SCc3cccc(Cl)c3)N2C1=O)NCCc1ccccc1` (stereo not drawn) was 19.3 µM; that for `O=C(NCCc1csc(-c2ccccc2)n1)[C@H]1CCCN1C(=O)c1ccccc1` was 36.5 µM; that for `CCCCNC(=O)CCC1N=C2c3ccccc3N=C(SCc3ccc(F)cc3)N2C1=O` (stereo not drawn) was 24.8 µM.
For `Cc1oc(-c2ccccc2)nc1CSc1nc2c(c(=O)[nH]1)CN(Cc1ccccc1)CC2`, the AC50 is 15.4 µM.
The value for `O=C(C(=O)N1CCN(c2ncnc3c2nnn3Cc2ccccc2)CC1)c1c[nH]c2ccccc12` was 13.5 µM; that for `N#C[C@@H]1[C@@H](c2ccc(C3=CCCCC3)cc2)[C@@H](CO)N1S(=O)(=O)c1ccccc1` was > 39 µM (inactive) and 5.52 µM.
The value for `O=C(Cc1cccnc1)N1CC(=O)N2[C@H](CO)[C@H](c3ccc(C#CC4CCCCC4)cc3)[C@@H]2C1` was 17.9 µM; that for `COc1ccc(CNC2=NCCNC23CCN(S(=O)(=O)c2ccc(C)cc2C)CC3)cc1` was 18.6 µM; that for `O=C(c1ccc(F)cc1)N1CC(=O)N2[C@@H](CO)[C@@H](c3ccc(C#CCC4CCCC4)cc3)[C@@H]2C1` was 23.5 µM.
`CCOc1ccc(N(Cc2nc(-c3ccccc3)oc2C)S(=O)(=O)c2ccccc2)cc1`: the AC50 was 7.95 µM.
For `Cc1cccc(C(=O)N2CCC3(CC2)Nc2cc(F)ccc2-n2cccc23)c1`, the AC50 is > 39 µM (inactive).
The figure for `COc1ccccc1-c1ccc([C@H]2[C@H](CO)N[C@@H]2C#N)cc1` is 24 µM; for `Cc1ccc(S(=O)(=O)N2CCC3(CC2)NCCN=C3NCc2ccccc2F)cc1C` it is 22.5 µM; for `Cc1ccc(-c2nc(CN3CCN(C(=O)Nc4ccc(C)c(F)c4)CC3)c(C)o2)cc1` it is 8.58 µM.
The value for `O=C(CCC1N=C2c3ccccc3N=C(SCc3cccc(F)c3)N2C1=O)NCc1ccccc1` (stereo not drawn) was 27.4 µM; that for `COc1ccccc1NS(=O)(=O)c1cc2c3c(c1)CCC(=O)N3CCC2` was 25.4 µM; that for `CC(C)CCN1Cc2c(C(=O)NC3CCCCC3)ncn2-c2ccccc2S1(=O)=O` was 20.6 µM.
The value for `O=C(NC1CCCC1)N1CC(=O)N2[C@H](CO)[C@H](c3ccc(C4=CCCCC4)cc3)[C@@H]2C1` was 35.3 µM.
As for `COc1ccc(S(=O)(=O)N2CCc3c([nH]c4ccccc34)C2c2cc(F)ccc2F)cc1` (stereo not drawn), the AC50 is 17.1 µM.
The value for `COc1ccc(-c2nc(N(Cc3ccco3)CC3CCCO3)c3ccccc3n2)cc1` (stereo not drawn) was 31.8 µM.
The value for `O=C(Nc1ccc(F)cc1)N1C[C@@H]2N[C@H](C1)C2c1ccc(/C=C/c2ccccc2)cc1` (stereo partly drawn) was 10.3 µM and 2.14 µM.
Turning to `Cc1ccc(S(=O)(=O)N2CCC3(CC2)NCCN=C3NCc2ccccc2)c(C)c1`, the AC50 is 19.2 µM.
The figure for `O=C1CCc2cc(NC(=O)c3cccc(C(F)(F)F)c3)ccc2N1` is 16.8 µM; for `Cc1ccc(C(=O)Nc2ccc3c(c2)CCC(=O)N3)s1` it is 11.6 µM; for `COc1cc(NC(=O)Nc2ccc(-c3nc(-c4ccc(C)cc4C)co3)cc2)cc(OC)c1` it is 25.7 µM.
The figure for `CCc1c(C)sc2c1CCN(Cc1nc(-c3cccc(OC)c3OC)oc1C)C2c1ccccc1` (stereo not drawn) is 15.7 µM; for `COc1ccc(-c2nc(CN(c3ccccc3OC)S(=O)(=O)c3cccs3)c(C)o2)cc1` it is 13.7 µM.
In the case of `Cc1ccc(C(=O)N2CCC3(CC2)Nc2cc(F)ccc2-n2cccc23)cc1C`, the AC50 is > 39 µM (inactive).
The figure for `O=C(CCCCCCNC(=O)c1cnc(N(c2ccccc2)c2ccccc2)nc1)NO` is 14.8 µM; for `OC[C@H]1N[C@@H](CNCC2CCC2)[C@@H]1c1ccc(C2=CCCCC2)cc1` it is 12.4 µM and 20.4 µM; for `COc1ccccc1-c1nc(CN(c2ccccc2OC)S(=O)(=O)c2ccccc2)c(C)o1` it is 5.18 µM.
The figure for `COc1cccc(CNC2=NCCNC23CCN(S(=O)(=O)c2ccc4c(c2)CCCC4)CC3)c1` is 16.3 µM; for `O=C(C[C@@H]1CC[C@@H]2[C@H](COC[C@@H](O)CN2Cc2ccc(Oc3ccccc3)cc2)O1)N1CCN(c2ccccc2)CC1` it is 20.7 µM.
On to `Cc1cc(C(F)(F)F)nn1CC(=O)N1CCCC1c1cc(C(C)C)on1` (stereo not drawn), for which the AC50 is 32.6 µM.
`COc1cccc(CNC2=NCCNC23CCN(S(=O)(=O)c2cc(C)c(C)cc2C)CC3)c1`: the AC50 was 9.29 µM.
The value for `N#Cc1ccc(-c2ccc([C@@H]3[C@@H]4CN(C(=O)Nc5ccc6c(c5)OCO6)C[C@H]3N4)cc2)cc1` was 17.9 µM.
`O=C(Nc1ccc(F)cc1)N1CC(=O)N2[C@H](C1)[C@@H](c1ccc(-c3cccc(F)c3)cc1)[C@@H]2CO`: the concentration at half-maximal activity (AC50) is 8.5 µM and 5.04 µM.
The value for `N#Cc1cccc(-c2ccc(C3[C@@H]4CN(C(=O)c5ccc6c(c5)OCO6)C[C@H]3N4)cc2)c1` (stereo partly drawn) was 14.5 µM and 9.62 µM; that for `Cc1ccn(CCNc2nccc(-c3c(C)nn(C)c3C)n2)n1` was 18.8 µM.
The figure for `COCCNc1nc(-c2ccc(OC)cc2)nc2ccccc12` is 18.4 µM; for `Cc1ccc(-c2nc(CN(c3ccccc3C)S(=O)(=O)c3cccs3)c(C)o2)cc1` it is 9.63 µM; for `COc1ccccc1CNC1=NCCNC12CCN(S(=O)(=O)c1ccc(Cl)s1)CC2` it is 17 µM.
The value for `Cc1ccc(-c2nc(CN3CCN(C(=O)Nc4ccc(F)cc4)CC3)c(C)o2)cc1` was 33.3 µM.
`O=S(=O)(c1ccccc1)N1CCc2c([nH]c3ccccc23)C1c1cc(F)ccc1F` (stereo not drawn): the AC50 is 12.6 µM.
The figure for `O=C(Nc1c(C(=O)NCc2cccnc2)[nH]c2ccccc12)c1ccc(Cl)cc1` is 21.2 µM.
With `CC(C)C#Cc1ccc([C@H]2[C@@H](C#N)N(C(=O)c3cccc(F)c3)[C@@H]2CO)cc1`, the AC50 is 22 µM.
The value for `COc1ccc(NC(=O)CN2CCC3(CC2)N=C(c2cccc(Cl)c2)C(=O)N3)cc1` was 18.2 µM; that for `CC(C)c1cccc(NC(=O)C[C@H]2CC[C@H]3[C@@H](COc4ccc(NS(=O)(=O)c5ccccc5Cl)cc4C(=O)N3C)O2)c1` was 22.6 µM.
For `O=C(NCCc1csc(-c2ccccc2)n1)C1CCN(C(=O)c2ccccc2Cl)CC1`, the half-maximal activity concentration (AC50) was 25.8 µM.
The figure for `COc1ccc(-c2nc(NCCN3CCOCC3)c3ccccc3n2)cc1` is 14.2 µM; for `COc1ccccc1-c1nc(Cn2nnc(-c3nc(-c4cccc(C(F)(F)F)c4)no3)c2C)c(C)o1` it is > 20 µM (inactive).
The figure for `CCc1cc(C2CCCN2C(=O)c2cc(C(F)(F)F)nn2C)on1` (stereo not drawn) is > 39 µM (inactive); for `CCOc1ccc(-c2nc(CN(c3ccccc3OC)S(=O)(=O)c3cccs3)c(C)o2)cc1` it is 8.23 µM; for `CN(C)CCNC(=O)c1c2c(NCc3cccnc3)ncnc2n2ccccc12` it is 32.4 µM.
The figure for `O=C(CCC1N=C2c3ccccc3N=C(SCc3ccccc3F)N2C1=O)NCc1ccccc1` (stereo not drawn) is 29.4 µM; for `COc1ccc(-c2nc(CN(c3cccc(OC)c3)S(=O)(=O)c3ccccc3)c(C)o2)cc1` it is 9.75 µM.
For `Cc1cccc(CNC2=NCCNC23CCN(S(=O)(=O)c2ccc(C(C)C)cc2)CC3)c1`, the AC50 was 13 µM.
The figure for `Cc1nc(OCC(=O)Nc2ccc(Cl)cc2)c2ccccc2n1` is > 39 µM (inactive); for `COc1ccc(-c2nc(CN(c3ccccc3OC)S(=O)(=O)c3ccc(C)cc3)c(C)o2)cc1` it is 5.3 µM; for `Cc1oc(-c2cccc(Cl)c2)nc1CN1CCN(C(=O)Nc2ccc(F)cc2)CC1` it is 24.1 µM.
Regarding `O=C(Nc1ccc(F)cc1)N1CC(=O)N2[C@@H](CO)[C@@H](c3ccc(-c4cccc(F)c4)cc3)[C@@H]2C1`, the AC50 was 18.5 µM.
The value for `O=C(Cc1cccnc1)N1CC(=O)N2[C@H](CO)[C@@H](c3ccc(C4=CCCCC4)cc3)[C@H]2C1` was 25.3 µM.
The figure for `CCOc1ccc(-c2nc(CN(c3ccc(OC)cc3)S(=O)(=O)c3ccccc3C)c(C)o2)cc1` is 11.8 µM; for `COc1ccc(-c2nc3c(s2)CN(C(=O)Nc2cccc(C)c2)CC3)cc1OC` it is > 39 µM (inactive); for `Cc1ccccc1-c1nc(CN2CCN(C(=O)Nc3ccc(F)cc3)CC2)c(C)o1` it is > 39 µM (inactive).
Take `Cc1ccc(NC(=O)CN2CCC3(CC2)N=C(c2cccc(Cl)c2)C(=O)N3)cc1`: the half-maximal activity concentration (AC50) is 28 µM.
The value for `CCN1CCCC1CNC(=O)C1CCN(Cc2cc3ccccc3n2Cc2ccccc2Cl)CC1` (stereo not drawn) was 28.7 µM; that for `COc1cccc(N(Cc2nc(-c3ccccc3)oc2C)S(=O)(=O)c2ccccc2C)c1` was 5.46 µM; that for `COc1ccc(-c2ccc3c(c2)[C@@H]2[C@@H](CCN2C(=O)c2cccc(F)c2)[C@H](CO)N3)cc1` was 26.9 µM.
For the compound `Cc1nc(CCNC(=O)C2CCN(C(=O)c3cccc(Cl)c3)CC2)cs1`, the AC50 is 31.5 µM.
The value for `COc1cccc(-c2nc(C)c(-c3ccc(SCc4ccc(F)cc4)nn3)s2)c1` was 6.5 µM; that for `COc1ccc(C#Cc2ccc([C@@H]3[C@@H](CO)N4C(=O)CN(C(=O)NC(C)C)C[C@@H]34)cc2)cc1` was 20.4 µM.
The figure for `CS(=O)(=O)N1CC(=O)N2[C@H](CO)[C@@H](c3ccc(C#Cc4ccc(F)cc4)cc3)[C@H]2C1` is 39 µM; for `O=C1CNC[C@H]2[C@@H](c3ccc(C#Cc4cccnc4)cc3)[C@@H](CO)N12` it is 26.8 µM.
